# Like-named read-outs stand apart in the source and are kept apart here. Where a SMILES comes first, the peptide text is derived from it. The star is where a group is joined. Benzoyl(4-OMe) = COc1ccc(C(=O)*)cc1
# Tests used:
# [1] = target: T1, His-tagged APC (303–739) (Homo sapiens, UniProt P25054); assay: Surface plasmon resonance (Biacore 8K); assay type: binding
# T1 sequence (P25054 303-739): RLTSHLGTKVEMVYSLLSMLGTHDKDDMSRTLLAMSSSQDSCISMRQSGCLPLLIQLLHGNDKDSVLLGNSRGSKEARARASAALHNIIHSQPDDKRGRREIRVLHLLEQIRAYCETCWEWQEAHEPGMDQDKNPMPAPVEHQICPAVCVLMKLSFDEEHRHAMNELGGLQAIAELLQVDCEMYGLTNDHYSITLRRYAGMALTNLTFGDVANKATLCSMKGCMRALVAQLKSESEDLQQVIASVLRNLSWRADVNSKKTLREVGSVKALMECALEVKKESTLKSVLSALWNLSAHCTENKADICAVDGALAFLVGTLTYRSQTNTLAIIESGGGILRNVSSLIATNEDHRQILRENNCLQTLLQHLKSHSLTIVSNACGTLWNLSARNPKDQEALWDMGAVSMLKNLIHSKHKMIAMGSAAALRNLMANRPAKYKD
# Method: SPR experiments were performed using a Biacore 8 K system equipped with a CM5 sensor chip. […] The ligand at a 10 μg mL^-1 concentration in 10 mM sodium acetate, pH 5.0, was immobilized on flow cell 2; flow cell 1 was left blank to serve as a reference surface. […] To collect kinetic binding data, a serial concentration of peptide inhibitors in 1× PBS, pH 7.4, was injected over the two flow cells at a flow rate of 30 μL min^-1 and a temperature of 25 °C. The complex was allowed to associate and dissociate for 60–240 and 150–600 s, respectively. The experiments were performed in triplicate. […] The data were fitted to a Langmuir 1:1 binding model using the local Rmax analysis option available in the Biacore insight evaluation software.
# [2] = target: T2, APC (303–739) (Homo sapiens, UniProt P25054); assay: FP competitive assay using tracer 7; assay type: binding; details: for IC50: Table 3 source data
# T2 sequence (P25054 303-739): T1 sequence (P25054 303-739)
# Summary of the method: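 Fluorescence polarization competition: APC (303–739) in 50 mM HEPES pH 7.5, 300 mM NaCl, 1 mM EDTA, 1 mM DTT, preincubated 1 h at room temperature with serially diluted peptides. FITC tracer 7 then added (400 nM stock) and FP read after 1.5 h at room temperature; IC50 by nonlinear regression, triplicates.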
smiles,measurement,setting,value
COc1ccc(C(=O)N[C@@H](C)C(=O)NCC(=O)N[C@@H](CCC(=O)O)C(=O)N[C@@H](CO)C(=O)N[C@@H](CC(C)C)C(=O)N[C@@H](Cc2ccc(O)cc2)C(=O)N[C@@H](CCC(=O)O)C(N)=O)cc1 [MAI-516] ({Benzoyl(4-OMe)}-AGESLYE-NH2),RT (RT = 1/koff),[1],135 s
same,Relative response at equilibrium,[1]; 1.5625 nM,2.9457 RU
same,Relative response at equilibrium,[1]; 3.125 nM,3.565 RU
same,Relative response at equilibrium,[1]; 6.25 nM,5.67 RU
same,Relative response at equilibrium,[1]; 12.5 nM,10.1156 RU
same,Relative response at equilibrium,[1]; 25 nM,17.7318 RU
same,Relative response at equilibrium,[1]; 50 nM,24.4156 RU
same,Relative response at equilibrium,[1]; 100 nM,27.6681 RU
same,Relative response at equilibrium,[1]; 200 nM,31.5021 RU
same,Kd,"[1]; SPR, Repeat 1, read-out: KD Repeat 1",19.9 nM
same,koff,"[1]; SPR, Repeat 1, read-out: koff Repeat 1",0.00848 s⁻¹
same,kon,"[1]; SPR, Repeat 1, read-out: kon Repeat 1",427000 M⁻¹ s⁻¹
same,Kd,"[1]; SPR, Repeat 2, read-out: KD Repeat 2",18.8 nM
same,koff,"[1]; SPR, Repeat 2, read-out: koff Repeat 2",0.00807 s⁻¹
same,kon,"[1]; SPR, Repeat 2, read-out: kon Repeat 2",430000 M⁻¹ s⁻¹
same,Kd,"[1]; SPR, Repeat 3, read-out: KD Repeat 3",16 nM
same,koff,"[1]; SPR, Repeat 3, read-out: koff Repeat 3",0.00564 s⁻¹
same,kon,"[1]; SPR, Repeat 3, read-out: kon Repeat 3",353000 M⁻¹ s⁻¹
same,Kd,"[1]; SPR, mean of 3 repeats, read-out: KD mean",18.2 nM
same,koff,"[1]; SPR, mean of 3 repeats, read-out: koff mean",0.0074 s⁻¹
same,kon,"[1]; SPR, mean of 3 repeats, read-out: kon mean",403000 M⁻¹ s⁻¹
same,RT,"[1]; SPR, single value printed in the Repeat 1 column",135 s
same,inhibition at 0.0002 µM,"[2]; Conc. 0.0002 μM, individual repeats, Fig3b, read-out: %inhibition",0.5%
same,inhibition at 0.0005 µM,"[2]; Conc. 0.0005 μM, individual repeats, Fig3b, read-out: %inhibition",-0.4%
same,inhibition at 0.001 µM,"[2]; Conc. 0.001 μM, individual repeats, Fig3b, read-out: %inhibition",0.3%
same,inhibition at 0.002 µM,"[2]; Conc. 0.002 μM, individual repeats, Fig3b, read-out: %inhibition",0.4%
same,inhibition at 0.0024 µM,"[2]; Conc. 0.0024 μM, individual repeats, Fig3b, read-out: %inhibition",2.8%
same,inhibition at 0.0039 µM,"[2]; Conc. 0.0039 μM, individual repeats, Fig3b, read-out: %inhibition",3.1%
same,inhibition at 0.0049 µM,"[2]; Conc. 0.0049 μM, individual repeats, Fig3b, read-out: %inhibition",6.1%
same,inhibition at 0.006 µM,"[2]; Conc. 0.006 μM, individual repeats, Fig3b, read-out: %inhibition",3.8%
same,inhibition at 0.0078 µM,"[2]; Conc. 0.0078 μM, individual repeats, Fig3b, read-out: %inhibition",6.6%
same,inhibition at 0.0098 µM,"[2]; Conc. 0.0098 μM, individual repeats, Fig3b, read-out: %inhibition",13.7%
same,inhibition at 0.012 µM,"[2]; Conc. 0.012 μM, individual repeats, Fig3b, read-out: %inhibition",8.8%
same,inhibition at 0.0156 µM,"[2]; Conc. 0.0156 μM, individual repeats, Fig3b, read-out: %inhibition",19.4%
same,inhibition at 0.0195 µM,"[2]; Conc. 0.0195 μM, individual repeats, Fig3b, read-out: %inhibition",28.4%
same,inhibition at 0.024 µM,"[2]; Conc. 0.024 μM, individual repeats, Fig3b, read-out: %inhibition",22.1%
same,inhibition at 0.0313 µM,"[2]; Conc. 0.0313 μM, individual repeats, Fig3b, read-out: %inhibition",44%
same,inhibition at 0.0391 µM,"[2]; Conc. 0.0391 μM, individual repeats, Fig3b, read-out: %inhibition",48.7%
same,inhibition at 0.049 µM,"[2]; Conc. 0.049 μM, individual repeats, Fig3b, read-out: %inhibition",44.6%
same,inhibition at 0.0625 µM,"[2]; Conc. 0.0625 μM, individual repeats, Fig3b, read-out: %inhibition",65.8%
same,inhibition at 0.0781 µM,"[2]; Conc. 0.0781 μM, individual repeats, Fig3b, read-out: %inhibition",67.8%
same,inhibition at 0.098 µM,"[2]; Conc. 0.098 μM, individual repeats, Fig3b, read-out: %inhibition",67.3%
same,inhibition at 0.125 µM,"[2]; Conc. 0.125 μM, individual repeats, Fig3b, read-out: %inhibition",80.6%
same,inhibition at 0.1563 µM,"[2]; Conc. 0.1563 μM, individual repeats, Fig3b, read-out: %inhibition",82%
same,inhibition at 0.195 µM,"[2]; Conc. 0.195 μM, individual repeats, Fig3b, read-out: %inhibition",81.2%
same,inhibition at 0.25 µM,"[2]; Conc. 0.25 μM, individual repeats, Fig3b, read-out: %inhibition",89.6%
same,inhibition at 0.3125 µM,"[2]; Conc. 0.3125 μM, individual repeats, Fig3b, read-out: %inhibition",90.7%
same,inhibition at 0.391 µM,"[2]; Conc. 0.391 μM, individual repeats, Fig3b, read-out: %inhibition",89.5%
same,inhibition at 0.5 µM,"[2]; Conc. 0.5 μM, individual repeats, Fig3b, read-out: %inhibition",95.1%
same,inhibition at 0.625 µM,"[2]; Conc. 0.625 μM, individual repeats, Fig3b, read-out: %inhibition",96%
same,inhibition at 0.781 µM,"[2]; Conc. 0.781 μM, individual repeats, Fig3b, read-out: %inhibition",94.6%
same,inhibition at 1 µM,"[2]; Conc. 1 μM, individual repeats, Fig3b, read-out: %inhibition",98.2%
same,inhibition at 1.25 µM,"[2]; Conc. 1.25 μM, individual repeats, Fig3b, read-out: %inhibition",98.2%
same,inhibition at 1.563 µM,"[2]; Conc. 1.563 μM, individual repeats, Fig3b, read-out: %inhibition",96.2%
same,inhibition at 2 µM,"[2]; Conc. 2 μM, individual repeats, Fig3b, read-out: %inhibition",99.4%
same,inhibition at 2.5 µM,"[2]; Conc. 2.5 μM, individual repeats, Fig3b, read-out: %inhibition",99.2%
same,inhibition at 3.125 µM,"[2]; Conc. 3.125 μM, individual repeats, Fig3b, read-out: %inhibition",98.2%
same,inhibition at 5 µM,"[2]; Conc. 5 μM, individual repeats, Fig3b, read-out: %inhibition",100%
same,inhibition at 6.25 µM,"[2]; Conc. 6.25 μM, individual repeats, Fig3b, read-out: %inhibition",98.1%
same,inhibition at 10 µM,"[2]; Conc. 10 μM, individual repeats, Fig3b, read-out: %inhibition",101%
same,inhibition at 12.5 µM,"[2]; Conc. 12.5 μM, individual repeats, Fig3b, read-out: %inhibition",98.5%
same,inhibition at 20 µM,"[2]; Conc. 20 μM, individual repeats, Fig3b, read-out: %inhibition",100%
same,inhibition at 25 µM,"[2]; Conc. 25 μM, individual repeats, Fig3b, read-out: %inhibition",99.7%
same,inhibition at 50 µM,"[2]; Conc. 50 μM, individual repeats, Fig3b, read-out: %inhibition",99%
same,"mean (FP signal, FigS5)","[2]; Repeat 1, Conc. 0.0024 μM",278.3
same,"mean (FP signal, FigS5)","[2]; Repeat 1, Conc. 0.0049 μM",270.3
same,"mean (FP signal, FigS5)","[2]; Repeat 1, Conc. 0.0098 μM",252
same,"mean (FP signal, FigS5)","[2]; Repeat 1, Conc. 0.0195 μM",216.7
same,"mean (FP signal, FigS5)","[2]; Repeat 1, Conc. 0.0391 μM",168
same,"mean (FP signal, FigS5)","[2]; Repeat 1, Conc. 0.0781 μM",122
same,"mean (FP signal, FigS5)","[2]; Repeat 1, Conc. 0.1563 μM",88
same,"mean (FP signal, FigS5)","[2]; Repeat 1, Conc. 0.3125 μM",67
same,"mean (FP signal, FigS5)","[2]; Repeat 1, Conc. 0.625 μM",54.3
same,"mean (FP signal, FigS5)","[2]; Repeat 1, Conc. 1.25 μM",49
same,"mean (FP signal, FigS5)","[2]; Repeat 1, Conc. 2.5 μM",46.7
same,"mean (FP signal, FigS5)","[2]; Repeat 1, Conc. 5 μM",44.3
same,"mean (FP signal, FigS5)","[2]; Repeat 1, Conc. 10 μM",42.7
same,"mean (FP signal, FigS5)","[2]; Repeat 1, Conc. 20 μM",44.3
same,IC50,"[2]; Repeat 1, read-out: IC50(μM) Repeat 1",0.0453 µM
same,"mean (FP signal, FigS5)","[2]; Repeat 2, Conc. 0.0002 μM",302.3
same,"mean (FP signal, FigS5)","[2]; Repeat 2, Conc. 0.0005 μM",304.7
same,"mean (FP signal, FigS5)","[2]; Repeat 2, Conc. 0.001 μM",303
same,"mean (FP signal, FigS5)","[2]; Repeat 2, Conc. 0.002 μM",302.7
same,"mean (FP signal, FigS5)","[2]; Repeat 2, Conc. 0.0039 μM",295.7
same,"mean (FP signal, FigS5)","[2]; Repeat 2, Conc. 0.0078 μM",286.7
same,"mean (FP signal, FigS5)","[2]; Repeat 2, Conc. 0.0156 μM",253.7
same,"mean (FP signal, FigS5)","[2]; Repeat 2, Conc. 0.0313 μM",190.3
same,"mean (FP signal, FigS5)","[2]; Repeat 2, Conc. 0.0625 μM",134.3
same,"mean (FP signal, FigS5)","[2]; Repeat 2, Conc. 0.125 μM",96.3
same,"mean (FP signal, FigS5)","[2]; Repeat 2, Conc. 0.25 μM",73
same,"mean (FP signal, FigS5)","[2]; Repeat 2, Conc. 0.5 μM",59
same,"mean (FP signal, FigS5)","[2]; Repeat 2, Conc. 1 μM",51
same,"mean (FP signal, FigS5)","[2]; Repeat 2, Conc. 2 μM",48
same,IC50,"[2]; Repeat 2, read-out: IC50(μM) Repeat 2",0.0412 µM
same,"mean (FP signal, FigS5)","[2]; Repeat 3, Conc. 0.006 μM",307.3
same,"mean (FP signal, FigS5)","[2]; Repeat 3, Conc. 0.012 μM",294
same,"mean (FP signal, FigS5)","[2]; Repeat 3, Conc. 0.024 μM",259
same,"mean (FP signal, FigS5)","[2]; Repeat 3, Conc. 0.049 μM",199.7
same,"mean (FP signal, FigS5)","[2]; Repeat 3, Conc. 0.098 μM",140
same,"mean (FP signal, FigS5)","[2]; Repeat 3, Conc. 0.195 μM",103.3
same,"mean (FP signal, FigS5)","[2]; Repeat 3, Conc. 0.391 μM",81.3
same,"mean (FP signal, FigS5)","[2]; Repeat 3, Conc. 0.781 μM",68
same,"mean (FP signal, FigS5)","[2]; Repeat 3, Conc. 1.563 μM",63.7
same,"mean (FP signal, FigS5)","[2]; Repeat 3, Conc. 3.125 μM",58.3
same,"mean (FP signal, FigS5)","[2]; Repeat 3, Conc. 6.25 μM",58.7
same,"mean (FP signal, FigS5)","[2]; Repeat 3, Conc. 12.5 μM",57.7
same,"mean (FP signal, FigS5)","[2]; Repeat 3, Conc. 25 μM",54.3
same,"mean (FP signal, FigS5)","[2]; Repeat 3, Conc. 50 μM",56.3
same,IC50,"[2]; Repeat 3, read-out: IC50(μM) Repeat 3",0.0379 µM
same,IC50,"[2]; mean of 3 repeats, read-out: IC50(μM) mean",0.0415 µM

# Source: PMC9402538, “Rational design of a sensitivity-enhanced tracer for discovering efficient APC–Asef inhibitors” (Nature Communications, 2022)
